# Measured values published in patent US8124793B2, “Derivatives of ethylene methanedisulfonate as cancer chemotherapeutic agents” (priority 2007, dated 2012).
# Legend:
# Type in all cases: cell-based
# ACHN = assay: NCI screen, growth of human tumor cells: Renal Cancer ACHN; conditions: ACHN (Renal Cancer), 10^−4 molar
# Method: (§1) In the NCI screening process, each compound was tested and described by a minimum of 60 data points. The test data include, but are not limited to the type of cancer, the molar concentration used in the screen, and the percent growth of the cancer. In some cases, NMR and elemental analysis were used for structural assignment.
# NCI-H460 = assay: NCI screen, growth of human tumor cells: Non-Small Cell Lung NCI-H460; conditions: NCI-H460 (Non-Small Cell Lung), 10^−4 molar
# Method: as §1
# human cancer cells = assay: NCI screen summary over the cancers tested (negative growth of human cancer cells); conditions: 10^−4 M conc.; cancers with negative growth / cancers tested
# Method: as §1
# The derivatives in the tables are grouped using the same category as in the tables 1-6.
# SNB-75 = assay: NCI screen, growth of human tumor cells: CNS Cancer SNB-75; conditions: SNB-75 (CNS Cancer), 10^−4 molar
# Method: as §1
# CCRF-CEM = assay: NCI screen, growth of human tumor cells: Leukemia CCRF-CEM; conditions: for percent of growth of human tumor cells: CCRF-CEM (Leukemia); for % Growth: CCRF-CEM
# Method: as §1
# MOLT-4 = assay: NCI screen, growth of human tumor cells: Leukemia MOLT-4; conditions: MOLT-4 (Leukemia), 10^−4 molar
# Method: as §1
# SF-539 = assay: NCI screen, growth of human tumor cells: CNS Cancer SF-539
# Method: as §1
# NCI-H226 = assay: NCI screen, growth of human tumor cells: Non-Small Cell Lung NCI-H226
# Method: as §1
# EKVX = assay: NCI screen, growth of human tumor cells: Non-Small Cell Lung EKVX; conditions: EKVX
# Method: as §1
# HOP-18 = assay: NCI screen, growth of human tumor cells: Non-Small Cell Lung HOP-18
# Method: as §1
# KM12 = assay: NCI screen, growth of human tumor cells: Colon Cancer KM12
# Method: as §1
# SR = assay: NCI screen, growth of human tumor cells: Leukemia SR; conditions: for % Growth: SR
# Method: as §1
# HCT-15 = assay: NCI screen, growth of human tumor cells: Colon Cancer HCT-15; conditions: HCT-15 (Colon Cancer), 10^−4 molar
# Method: as §1
# NCI-H522 = assay: NCI screen, growth of human tumor cells: Non-Small Cell Lung NCI-H522
# Method: as §1
# RPMI-8226 = assay: NCI screen, growth of human tumor cells: Leukemia RPMI-8226; conditions: RPMI-8226 (Leukemia), 10^−4 molar
# Method: as §1
# UACC-62 = assay: NCI screen, growth of human tumor cells: Melanoma UACC-62; conditions: UACC-62 (Melanoma), 10^−4 molar
# Method: as §1
# CAKI-1 = assay: NCI screen, growth of human tumor cells: Renal Cancer CAKI-1; conditions: CAKI-1 (Renal Cancer), 10^−4 molar
# Method: as §1
# HOP-92 = assay: NCI screen, growth of human tumor cells: Non-Small Cell Lung HOP-92
# Method: as §1
# RXF-393 = assay: NCI screen, growth of human tumor cells: Renal Cancer RXF-393
# Method: as §1
# SK-MEL-5 = assay: NCI screen, growth of human tumor cells: Melanoma SK-MEL-5; conditions: SK-MEL-5, 10^−4 molar
# Method: as §1
# K562 = assay: NCI screen, growth of human tumor cells: Leukemia K562
# Method: as §1
molecule,measurement,setting,value
O=S1(=O)OCCOS(=O)(=O)C1=NNc1c(O)cc(S(=O)(=O)O)c2ccccc12 [NSC 686564],percent of growth of human tumor cells,ACHN,26%
same,percent of growth of human tumor cells,NCI-H460,6%
same,Percentage of cancers showing negative growth cancers tested,human cancer cells,10^−4 M conc. = 0/5 = 0%
same,percent of growth of human tumor cells,SNB-75,7%
same,percent of growth of human tumor cells,CCRF-CEM; 10^−4 molar,14%
same,percent of growth of human tumor cells,MOLT-4,23%
O=S1(=O)OCCCOS(=O)(=O)C1(Br)Br [compound 665940],% Growth,"SF-539; SF-539, 10^−4 molar",63%
same,% Growth,"SF-539; SF-539, 10^−5 molar",99%
same,% Growth,"SF-539; SF-539, 10^−6 molar",43%
same,% Growth,"SF-539; SF-539, 10^−7 molar",62%
same,% Growth,"SF-539; SF-539, 10^−8 molar",47%
"Cc1ccc(S(=O)(=O)NC(=O)C2S(=O)(=O)OCCOS2(=O)=O)cc1 [NSC 648303, ethylene(4-methylbenzenesulfonamidocarbonyl)methanedisulfonate]",Percentage of cancers showing negative growth cancers tested,human cancer cells,10^−4 M conc. = 0/3 = 0%
same,% Growth,"NCI-H226; NCI-H226, 10^−4 molar",16%
same,% Growth,"NCI-H226; NCI-H226, 10^−5 molar",37%
same,% Growth,"NCI-H226; NCI-H226, 10^−6 molar",51%
same,% Growth,"NCI-H226; NCI-H226, 10^−7 molar",55%
same,% Growth,"NCI-H226; NCI-H226, 10^−8 molar",53%
same,% Growth,EKVX; 10^−4 molar,59%
same,% Growth,EKVX; 10^−5 molar,66%
same,% Growth,EKVX; 10^−6 molar,69%
same,% Growth,EKVX; 10^−7 molar,67%
same,% Growth,EKVX; 10^−8 molar,57%
same,% Growth,"HOP-18; HOP-18, 10^−4 molar",69%
same,% Growth,"HOP-18; HOP-18, 10^−5 molar",43%
same,% Growth,"HOP-18; HOP-18, 10^−6 molar",39%
same,% Growth,"HOP-18; HOP-18, 10^−7 molar",33%
same,% Growth,"HOP-18; HOP-18, 10^−8 molar",31%
O=C1c2ccccc2C(=O)N1CC1S(=O)(=O)OCCOS1(=O)=O [NSC 671536],% Growth,"KM12; KM12, 10^−4 molar",50%
same,% Growth,"KM12; KM12, 10^−5 molar",42%
same,% Growth,"KM12; KM12, 10^−6 molar",39%
same,% Growth,"KM12; KM12, 10^−7 molar",59%
same,% Growth,"KM12; KM12, 10^−8 molar",40%
same,Percentage of cancers showing negative growth cancers tested,human cancer cells,10^−4 M conc. = 0/2 = 0%
same,percent of growth of human tumor cells,"SR; SR (Leukemia), 10^−4 molar",15%
O=S1(=O)OCCOS(=O)(=O)C1c1nc(Cl)c(Cl)nc1Cl [NSC 720685],percent of growth of human tumor cells,HCT-15,7%
same,Percentage of cancers showing negative growth cancers tested,human cancer cells,10^−4 M conc. = 1/4 = 25%
same,percent of growth of human tumor cells,"SF-539; SF-539 (CNS Cancer), 10^−4 molar",7%
same,percent of growth of human tumor cells,"NCI-H522; NCI-H522 (Non-Small Cell Lung), 10^−4 molar",−22%
same,percent of growth of human tumor cells,MOLT-4,24%
O=S1(=O)OCCOS(=O)(=O)C1(Cl)Cl [NSC 648307],Percentage of cancers showing negative growth cancers tested,human cancer cells,10^−4 M conc. = 0/5 = 0%
same,percent of growth of human tumor cells,RPMI-8226,21%
same,percent of growth of human tumor cells,"NCI-H226; NCI-H226 (Non-Small Cell Lung), 10^−4 molar",23%
same,percent of growth of human tumor cells,UACC-62,7%
same,percent of growth of human tumor cells,CAKI-1,23%
same,percent of growth of human tumor cells,CCRF-CEM; 10^−4 molar,29%
"COC=C1S(=O)(=O)OCCOS1(=O)=O [NSC 701691, ethylene 2-methoxy-1,1-ethylenedisulfonate]",Percentage of cancers showing negative growth cancers tested,human cancer cells,10^−4 M conc. = 0/6 = 0%
same,% Growth,"HOP-92; HOP-92, 10^−4 molar",44%
same,% Growth,"HOP-92; HOP-92, 10^−5 molar",56%
same,% Growth,"HOP-92; HOP-92, 10^−6 molar",92%
same,% Growth,"HOP-92; HOP-92, 10^−7 molar",71%
same,% Growth,"HOP-92; HOP-92, 10^−8 molar",58%
same,% Growth,SR; 10^−4 molar,12%
same,% Growth,SR; 10^−5 molar,49%
same,% Growth,"RXF-393; RXF-393, 10^−4 molar",23%
same,% Growth,"RXF-393; RXF-393, 10^−5 molar",55%
same,% Growth,"RXF-393; RXF-393, 10^−6 molar",60%
same,% Growth,"RXF-393; RXF-393, 10^−7 molar",68%
same,% Growth,"RXF-393; RXF-393, 10^−8 molar",63%
same,% Growth,"HOP-18; HOP-18, 10^−4 molar",44%
same,% Growth,"HOP-18; HOP-18, 10^−5 molar",56%
same,% Growth,"HOP-18; HOP-18, 10^−6 molar",92%
same,% Growth,"HOP-18; HOP-18, 10^−7 molar",71%
same,% Growth,"HOP-18; HOP-18, 10^−8 molar",58%
same,percent of growth of human tumor cells,CCRF-CEM; 10^−4 molar,24%
same,% Growth,"NCI-H522; NCI-H522, 10^−4 molar",66%
same,% Growth,"NCI-H522; NCI-H522, 10^−5 molar",44%
same,% Growth,"NCI-H522; NCI-H522, 10^−6 molar",67%
same,% Growth,"NCI-H522; NCI-H522, 10^−7 molar",48%
same,% Growth,"NCI-H522; NCI-H522, 10^−8 molar",73%
CC(=O)O[C@H]1CC[C@]2(C)C3C(=O)C[C@]4(C)[C@@H](C(C)=O)CC[C@@]4(C)[C@@H]3CC[C@H]2C1(C)C (stereo partly drawn) [compound 731278],% Growth,SK-MEL-5,−78%
"ethylene 2-hydroxy-2-solketalyl-ethylene-1,1-disulfonate [NSC 698123]",Percentage of cancers showing negative growth cancers tested,human cancer cells,10^−4 M conc. = 0/3 = 0%
same,% Growth,"SF-539; SF-539, 10^−4 molar",42%
same,% Growth,"SF-539; SF-539, 10^−5 molar",50%
same,% Growth,"K562; K562, 10^−4 molar",63%
same,% Growth,"K562; K562, 10^−5 molar",41%
same,% Growth,CCRF-CEM; 10^−4 molar,32%
same,% Growth,CCRF-CEM; 10^−5 molar,58%
same,% Growth,CCRF-CEM; 10^−6 molar,57%
